From patent publication US20080275110A1, “Sesamin/Episesamin Compositions” (priority 2004, published 2008)

What was measured:
[1] = Oral absorption of episesamin and its transfer into blood circulation (I), LC-MS/MS of plasma; set-up: species or system SD (IGS) male rats; details: male, SD (IGS), rat, in vivo, 10 mg/kg
Method: (§1) SD (IGS) male rats (6-wk old) were purchased from CHARLES RIVER JAPAN INC. and habituated in the test environment for a week; the animals that were seen to grow normally were subjected to the test. The rats fasted overnight were divided into six groups each consisting of 5 heads; the high purity sesamin and episesamin obtained in Example 1 were incorporated at varying weight ratios of 6:4, 5:5, 4:6, 3:7, 1:9 and 0:10 to prepare sesamin/episesamin mixtures, which were dissolved in olive oil at a dose of 10 mg/kg and administered perorally to the rats via a feeding tube. […] After adding an internal standard, solid-phase extraction was performed with Oassis HLB and the liquid extract was concentrated under vacuum, suspended in methanol, passed through a filter, and subjected to LC-MS/MS for quantification of sesamin and episesamin. The quantity of sesamin or episesamin was determined from the ratio between the peak area of sesamin or episesamin and that of UDESMIN (Funakoshi Co, Ltd.) used as the internal standard. […]
The concentration of episesamin in blood peaked in about 6 hours after the administration, then decreased gradually until it became almost undetectable in 24 hours. From the blood concentration curve for 0-24 hours, the area under the curve (AUC) was determined as an index of absorbed quantity. […]

[2] = Oral absorption of episesamin and its transfer into blood circulation (II), lowered sesamin ratios; set-up: species or system rats; details: male, SD (IGS), rat, in vivo, 10 mg/kg
Method: as §1
With a view to prescribing effective mixing ratios of sesamin, the action of further lowered ratios of sesamin was evaluated in accordance with the method of Example 2. […]

[3] = rat, in vivo, po; cited from earlier work
[4] = tested on: β-oxidation enzymes in the liver; details: rats, separately administered orally; cited from earlier work
[5] = tested on: Deoxycorticosterone Acetate-Salt (DOCA-Salt) Induced Hypertension Model Rats; experiment: Blood pressure lowering action in DOCA-salt induced hypertension model rats (tail-cuff SBP); type: in vivo, SD male rats; details: 100 mg/kg single oral; for changes in blood pressure for 24 hours after the single administration: Example 4, FIG. 3, n=5-7; for changes in blood pressure 8 hours after the administration: Example 4, FIG. 4
Method: SD male rats (6-wk old) (purchased from Japan SLC, Inc.) were subjected to surgery for removing the right kidney under anesthetization with Nembutal. After recuperation for a week, the rats were administered subcutaneously with DOCA-salt twice a week at a dose of 15 mg/kg, and allowed to drink 1% saline. The systolic blood pressure (SBP) of each animal was measured by a tail-cuff method with a non-invasive automatic blood pressure measuring apparatus (BP-98A, Softron, Tokyo). At 5 weeks after the start of treatment with DOCA-salt, blood pressure was measured and the animals in which adequate elevation of blood pressure was verified were used in the following experiment. Rats fasted for 8 hours were divided into a control group and three test groups. The control group was administered olive oil only. For the test groups, the high purity sesamin and episesamin obtained in Example 1 were incorporated at varying weight ratios of 10:0, 5:5 and 0:10 to prepare sesamin/episesamin mixtures, which were suspended in olive oil at a dose of 100 mg/kg. Single oral administration of olive oil or the suspension was effected via a feeding tube. Both before the administration and 2, 4, 6, 8, 10, 12 and 24 hours after the administration, SBP measurement was conducted. Diet was applied after the blood pressure measurement at 12 hours. Testing was conducted at 1-wk intervals and the same head was subjected to no more than three measurements.
Sesamin and episesamin were incorporated at varying weight ratios of 5:5, 3:7 and 1:9 to prepare sesamin/episesamin mixtures, which were dissolved in olive oil at a dose of 50 mg/kg. Single oral administration of the solution was effected via a feeding tube, and for blood pressure measurement was conducted.

fatty acid synthases = details: rats, separately administered orally; cited from earlier work
β-oxidation genes = experiment: Effects on the expression of β-oxidation genes, quantitative RT-PCR; type: in vivo, Wistar male rats; details: Example 6, FIGS. 6A/6B; 200 mg/kg peroral three times at 24-hr intervals, 4 hours after final administration
Method: Wistar male rats (6-wk old) were purchased from CLEA Japan, Inc. and habituated in the test environment for a week; the animals that were seen to grow normally were subjected to the test. The rats were divided into six groups each consisting of 5 heads. The control group was administered with olive oil only. For the test groups, the high purity sesamin and episesamin obtained in Example 1 were incorporated at varying weight ratios of 10:0, 5:5, 3:7, 1:9 and 0:10 to prepare sesamin/episesamin mixtures, which were suspended in olive oil at a dose of 200 mg/kg. The rats were administered perorally with olive oil or the suspension three times at 24-hr intervals. Four hours after the final administration, the kidney was removed from each rat under anesthetization with Nembutal; after extracting RNA, effects on the expression of 10 β-oxidation genes were investigated by quantitative RT-PCR using TaqMan chemistry (Heid C A, Stevens J, Livak K J, Williams P M, Real time quantitative PCR, Genome Res. 1996 6(10):986-94).
In contrast, each of the groups administered with the sesamin/episesamin mixture experienced more elevated gene expression than the group administered with episesamin alone. The effect of the mixing ratio was somewhat variable from one gene to another but no significant difference was found among the three groups administered with the sesamin/episesamin mixture.

Row | Structure (SMILES) | percent absorption of episesamin (AUC 0-24 hours divided by relative amount of episesamin administered) [1] [%] | percent absorption of episesamin [2] [%] | transfer into organs relative to sesamin [3] | gene expression and enzymatic activity of β-oxidation enzymes in the liver compared with sesamin [4] | changes in blood pressure for 24 hours after the single administration [5] | changes in blood pressure 8 hours after the administration [5] [mmHg] | activity for inhibiting fatty acid synthases, sesamin versus episesamin (fatty acid synthases) | expression of β-oxidation genes (β-oxidation genes)
1 | c1cc2c(cc1[C@H]1OC[C@H]3[C@@H]1CO[C@H]3c1ccc3c(c1)OCO3)OCO2 [episesamin] | 72.5 | 59.7 | at least twice as much as that of sesamin | markedly increased | No significant changes | −6 | no difference between sesamin and episesamin | many genes were expressed in increased amounts
2 | c1cc2c(cc1[C@H]1OC[C@H]3[C@@H]1CO[C@@H]3c1ccc3c(c1)OCO3)OCO2 [sesamin] | – | – | – | – | No significant changes | −13 | no difference between sesamin and episesamin | hardly rose
